What all share (format): biochemical
Experiment [1] concerns the target T1, Nape-pld (Mus musculus, UniProt Q8BH82). Description: fluorogenic PED-A1 hydrolysis assay, activation. As to conditions: read-out: EC50 μM^b (95% CI).
Experiment [2] concerns the target NAPE-PLD (Homo sapiens, UniProt Q6IQ20). Description: recombinant human enzyme, PED-A1 fluorogenic assay, activation.
In experiment [3] the target is T2, soluble epoxide hydrolase (sEH) (Homo sapiens, UniProt P34913).
T2 sequence (P34913 1-555): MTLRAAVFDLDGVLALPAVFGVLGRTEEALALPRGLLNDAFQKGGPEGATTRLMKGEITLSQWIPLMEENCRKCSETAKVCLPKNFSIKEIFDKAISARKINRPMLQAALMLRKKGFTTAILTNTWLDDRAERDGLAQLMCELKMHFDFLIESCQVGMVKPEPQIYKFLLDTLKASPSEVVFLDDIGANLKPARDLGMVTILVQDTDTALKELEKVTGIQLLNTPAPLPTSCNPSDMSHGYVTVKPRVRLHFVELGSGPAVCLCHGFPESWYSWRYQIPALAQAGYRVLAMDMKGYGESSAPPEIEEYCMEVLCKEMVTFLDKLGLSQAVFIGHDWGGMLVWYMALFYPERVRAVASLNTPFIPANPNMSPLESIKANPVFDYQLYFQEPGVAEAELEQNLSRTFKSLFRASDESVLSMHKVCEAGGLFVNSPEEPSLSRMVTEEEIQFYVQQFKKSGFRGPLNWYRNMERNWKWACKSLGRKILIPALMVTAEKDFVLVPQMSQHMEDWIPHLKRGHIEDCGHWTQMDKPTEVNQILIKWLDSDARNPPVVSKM
Description: sEH activity assay kit.

Experiment [4] addresses T1, Nape-pld. Description: fluorogenic PED-A1 hydrolysis assay, activation. As to conditions: read-out: EC50 μM^b (95% CI). This is another data set of the same source.
Experiment [5] has as its target T1, Nape-pld. Description: fluorogenic PED-A1 hydrolysis assay, activation. As to conditions: read-out: EC50 μM^b (95% CI). This is another data set of the same source.

Like-named read-outs stand apart in the source and are kept apart here.

The source of these data is paper PMC9900783 (bioRxiv, 2023).

T1 sequence (Q8BH82 whole entry): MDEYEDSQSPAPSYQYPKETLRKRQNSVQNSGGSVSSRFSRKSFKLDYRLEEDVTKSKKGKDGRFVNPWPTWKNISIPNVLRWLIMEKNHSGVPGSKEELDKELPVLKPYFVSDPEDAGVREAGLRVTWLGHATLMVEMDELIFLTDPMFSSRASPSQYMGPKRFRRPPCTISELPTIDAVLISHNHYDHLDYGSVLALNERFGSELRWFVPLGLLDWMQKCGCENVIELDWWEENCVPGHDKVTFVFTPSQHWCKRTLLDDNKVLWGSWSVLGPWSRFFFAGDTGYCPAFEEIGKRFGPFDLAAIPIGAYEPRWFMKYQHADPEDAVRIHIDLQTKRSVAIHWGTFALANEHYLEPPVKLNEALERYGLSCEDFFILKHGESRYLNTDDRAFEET
Sequence of NAPE-PLD (Q6IQ20 whole entry): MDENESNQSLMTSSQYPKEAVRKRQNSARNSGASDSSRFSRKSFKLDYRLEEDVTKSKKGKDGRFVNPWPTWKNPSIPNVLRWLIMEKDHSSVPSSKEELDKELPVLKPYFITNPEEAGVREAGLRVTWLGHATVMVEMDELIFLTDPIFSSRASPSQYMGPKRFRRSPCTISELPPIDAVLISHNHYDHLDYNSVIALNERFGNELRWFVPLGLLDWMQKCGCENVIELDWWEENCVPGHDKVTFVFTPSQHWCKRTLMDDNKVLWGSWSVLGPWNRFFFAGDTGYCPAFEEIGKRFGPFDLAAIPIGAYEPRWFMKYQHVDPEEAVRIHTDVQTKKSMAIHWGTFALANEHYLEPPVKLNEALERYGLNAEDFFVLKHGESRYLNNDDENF

For the compound `Cc1ccc2nc(NC(=O)C3CCN(S(=O)(=O)c4ccc(F)cc4)CC3)sc2c1` [compound 3, VU486], on Nape-pld [1], the EC50 was found to be 0.32 µM.

Regarding `Cc1cc(C)c2sc(NC(=O)C3CCN(S(=O)(=O)c4ccc(F)cc4)CC3)nc2c1` [compound 8, VU534], the EC50 was found to be 930 nM at NAPE-PLD [2] and 0.3 µM at Nape-pld [4]. In experiment [3], half-maximal inhibition (IC50) was put at 1200 nM.

`Cc1ccc2nc(NC(=O)C3CCN(S(=O)(=O)c4ccc(Cl)cc4)CC3)sc2c1` [compound 5, VU539]: the 50% effective concentration (EC50) on Nape-pld [1] was determined as 0.74 µM.

`Cc1ccc(C)c2sc(NC(=O)C3CCN(S(=O)(=O)c4ccc(F)cc4)CC3)nc12` [compound 9, VU533]: the values for the EC50 at NAPE-PLD [2] and on Nape-pld [5] were 200 nM and 0.3 µM, respectively.

One may read the EC50 as the midpoint of the concentration-response curve. What is called IC50 is the concentration that inhibits the measured activity by half. High values mean lower potency, low ones higher potency.
